In ChEMBL document CHEMBL1201862, “PubChem BioAssay data set” (2004):
The source made the active and inactive calls.

Tests used:
[1] = biological target: T1, Serine/threonine-protein phosphatase (Candida dubliniensis (strain CD36 / CBS 7987 / NCPF 3949 / NRRLY-17841) (Yeast), UniProt B9W6M3); test: blockers of CaCl2-induced CDRE-lacZ signaling – S. cerevisiae, luminescence, secondary, dose response (AID 2388); type: functional, cell-based;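 note: yeast reporter cells carrying a calcineurin-responsive lacZ construct stimulated with calcium chloride; luminescent beta-galactosidase reporter signal in whole cells rather than isolated phosphatase activity; potency for inhibition where a drop in reporter signal means calcineurin blockade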
T1 sequence (B9W6M3 whole entry): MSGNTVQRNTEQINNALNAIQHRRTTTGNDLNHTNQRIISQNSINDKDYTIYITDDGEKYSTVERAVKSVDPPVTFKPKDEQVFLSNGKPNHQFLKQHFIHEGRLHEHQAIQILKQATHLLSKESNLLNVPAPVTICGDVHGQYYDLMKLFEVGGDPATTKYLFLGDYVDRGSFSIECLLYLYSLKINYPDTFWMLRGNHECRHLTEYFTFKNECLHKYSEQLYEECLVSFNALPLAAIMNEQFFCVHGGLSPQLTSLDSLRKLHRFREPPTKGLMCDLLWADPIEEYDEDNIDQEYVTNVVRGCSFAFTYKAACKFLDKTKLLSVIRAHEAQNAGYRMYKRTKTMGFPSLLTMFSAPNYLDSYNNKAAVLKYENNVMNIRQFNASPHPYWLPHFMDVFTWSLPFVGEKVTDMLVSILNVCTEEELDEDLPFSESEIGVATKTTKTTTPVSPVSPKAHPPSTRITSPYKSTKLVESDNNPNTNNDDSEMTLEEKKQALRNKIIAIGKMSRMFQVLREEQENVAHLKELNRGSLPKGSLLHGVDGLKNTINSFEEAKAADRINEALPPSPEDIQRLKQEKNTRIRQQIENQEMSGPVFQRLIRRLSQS

[2] = NIH-3T3 fibroblast cytotoxicity, dose response, cytotoxicity control, cell-based, fluorescence, Alamar Blue, secondary assay (AID 2327); type: functional;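 note: NIH-3T3 mouse fibroblasts cultured with fluconazole at 8 µg/mL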
[3] = biological target: ATP-dependent molecular chaperone HSP82 (Candida albicans (strain WO-1) (Yeast), UniProt C4YTQ8); test: steroid-induced GRE reporter decrease in yeast – S. cerevisiae, luminescence, Hsp90 inhibitor project, dose response (AID 2400); type: functional, cell-based;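 note: beta-galactosidase luminescence from glucocorticoid response element reporter as proxy for Hsp90 function; inhibitor potency where signal loss means Hsp90 inhibition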
ATP-dependent molecular chaperone HSP82, sequence (C4YTQ8 whole entry): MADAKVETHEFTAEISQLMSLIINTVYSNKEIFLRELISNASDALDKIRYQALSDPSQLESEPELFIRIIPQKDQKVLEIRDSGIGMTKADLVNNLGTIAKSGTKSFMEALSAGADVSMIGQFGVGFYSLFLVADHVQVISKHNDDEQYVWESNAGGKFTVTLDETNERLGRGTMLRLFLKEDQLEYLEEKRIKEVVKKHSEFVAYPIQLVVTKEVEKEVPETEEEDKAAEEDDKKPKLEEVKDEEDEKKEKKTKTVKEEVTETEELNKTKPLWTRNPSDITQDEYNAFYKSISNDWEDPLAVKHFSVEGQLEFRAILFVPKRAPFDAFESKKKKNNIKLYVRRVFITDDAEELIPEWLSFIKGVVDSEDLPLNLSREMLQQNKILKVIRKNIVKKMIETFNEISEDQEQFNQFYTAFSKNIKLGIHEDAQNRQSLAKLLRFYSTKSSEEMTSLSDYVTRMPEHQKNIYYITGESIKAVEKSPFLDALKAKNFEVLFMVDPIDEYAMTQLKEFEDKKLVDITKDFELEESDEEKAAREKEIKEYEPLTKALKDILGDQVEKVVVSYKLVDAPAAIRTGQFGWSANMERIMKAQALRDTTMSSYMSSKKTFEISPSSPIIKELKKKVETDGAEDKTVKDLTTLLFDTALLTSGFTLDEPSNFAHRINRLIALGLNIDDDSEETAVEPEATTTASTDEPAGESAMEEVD

[4] = fluconazole-exposed Candida albicans growth modulators – fluorescence, retest, confirmation (AID 2467); type: functional, cell-based
Candida albicans = test: antifungal activity against resistant Candida strain – CaCi-8, fluconazole, Alamar Blue, dry powder, dose response (AID 488807); type: functional, organism-based
Phospholipase A2 = Phospholipase A2 (Homo sapiens, UniProt P04054); test: phospholipase A2 activity inhibition – biochemical, set 2, counter-screen for ATG4B inhibitor project, dose response (AID 588586); type: functional
Phospholipase A2, sequence (P04054 whole entry): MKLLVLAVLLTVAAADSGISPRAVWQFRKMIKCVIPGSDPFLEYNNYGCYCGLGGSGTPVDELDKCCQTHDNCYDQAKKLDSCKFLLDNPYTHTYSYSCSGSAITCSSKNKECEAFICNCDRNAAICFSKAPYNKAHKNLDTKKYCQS

Cysteine protease ATG4B = biological target: T2, Cysteine protease ATG4B (Homo sapiens, UniProt Q9Y4P1); test: autophagin-1 cysteine protease inhibition – biochemical, fluorescence, set 2, dose response (AID 588584); type: functional
T2 sequence (Q9Y4P1 whole entry): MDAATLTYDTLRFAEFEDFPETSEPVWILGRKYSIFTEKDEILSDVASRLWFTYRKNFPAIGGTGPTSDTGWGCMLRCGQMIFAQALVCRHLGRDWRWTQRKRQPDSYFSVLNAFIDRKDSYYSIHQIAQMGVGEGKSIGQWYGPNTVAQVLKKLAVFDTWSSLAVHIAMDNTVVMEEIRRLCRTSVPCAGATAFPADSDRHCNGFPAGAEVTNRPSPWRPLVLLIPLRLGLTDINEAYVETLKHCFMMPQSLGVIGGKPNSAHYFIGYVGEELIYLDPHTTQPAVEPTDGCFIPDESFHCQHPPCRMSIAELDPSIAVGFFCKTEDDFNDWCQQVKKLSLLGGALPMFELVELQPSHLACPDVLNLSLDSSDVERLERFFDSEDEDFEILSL

Beta-galactosidase = Beta-galactosidase (Escherichia coli, UniProt Q8VNN2); test: Dose response counterscreen for EBI2 assay utilizing the enzyme, b-galactosidase.; type: functional
[5] = biological target: T3, Intestinal-type alkaline phosphatase (Homo sapiens, UniProt P09923); test: activation of human intestinal alkaline phosphatase – biochemical, luminescent, uHTS hits, set 2, dose response (AID 488817); type: functional;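 note: potency of activators that raise enzyme activity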
T3 sequence (P09923 whole entry): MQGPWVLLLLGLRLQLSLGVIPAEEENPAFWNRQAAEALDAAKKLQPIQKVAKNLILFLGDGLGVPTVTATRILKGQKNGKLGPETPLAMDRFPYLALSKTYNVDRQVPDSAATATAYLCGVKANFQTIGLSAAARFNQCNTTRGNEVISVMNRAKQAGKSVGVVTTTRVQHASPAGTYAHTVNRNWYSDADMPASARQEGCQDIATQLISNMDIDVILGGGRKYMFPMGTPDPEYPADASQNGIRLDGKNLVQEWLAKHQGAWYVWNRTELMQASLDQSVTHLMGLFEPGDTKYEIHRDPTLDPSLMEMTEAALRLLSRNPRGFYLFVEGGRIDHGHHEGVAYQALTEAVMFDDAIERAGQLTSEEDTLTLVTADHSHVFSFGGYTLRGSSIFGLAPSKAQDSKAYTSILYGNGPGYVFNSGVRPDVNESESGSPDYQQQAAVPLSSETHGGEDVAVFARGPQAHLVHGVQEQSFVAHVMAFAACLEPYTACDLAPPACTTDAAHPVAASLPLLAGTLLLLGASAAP

[6] = biological target: T3, Intestinal-type alkaline phosphatase; test: human intestinal alkaline phosphatase activators, dose response, biochemical, luminescence, uHTS hits (AID 463120); type: functional
[7] = biological target: T4, Alkaline phosphatase, tissue-nonspecific isozyme (Homo sapiens, UniProt P05186); test: activation of tissue-nonspecific alkaline phosphatase – biochemical, TNAP isozyme, human IAP uHTS hits, selectivity assay for human IAP activator project, dose response (AID 488886); type: functional;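 note: potency of compounds raising TNAP activity as a selectivity check on IAP activators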
T4 sequence (P05186 whole entry): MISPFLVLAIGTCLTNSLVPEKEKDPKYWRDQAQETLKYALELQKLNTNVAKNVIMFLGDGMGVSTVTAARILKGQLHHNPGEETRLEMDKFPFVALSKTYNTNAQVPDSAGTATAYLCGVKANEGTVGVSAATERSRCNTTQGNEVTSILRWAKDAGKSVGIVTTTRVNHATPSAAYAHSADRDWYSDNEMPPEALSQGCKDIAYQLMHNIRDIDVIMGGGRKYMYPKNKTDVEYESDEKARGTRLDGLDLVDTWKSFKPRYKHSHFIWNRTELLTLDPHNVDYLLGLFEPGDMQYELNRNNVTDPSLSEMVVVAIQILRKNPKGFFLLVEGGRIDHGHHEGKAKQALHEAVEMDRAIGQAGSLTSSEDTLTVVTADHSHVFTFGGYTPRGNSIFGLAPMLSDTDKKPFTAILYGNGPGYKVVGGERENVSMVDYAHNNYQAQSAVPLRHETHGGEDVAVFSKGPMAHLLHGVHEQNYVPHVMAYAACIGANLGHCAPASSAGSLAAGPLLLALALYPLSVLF

[8] = biological target: Intestinal-type alkaline phosphatase (Mus musculus, UniProt P24822); test: PubChem AID 488874; type: functional
Intestinal-type alkaline phosphatase (Mus musculus, UniProt P24822), sequence (P24822 whole entry): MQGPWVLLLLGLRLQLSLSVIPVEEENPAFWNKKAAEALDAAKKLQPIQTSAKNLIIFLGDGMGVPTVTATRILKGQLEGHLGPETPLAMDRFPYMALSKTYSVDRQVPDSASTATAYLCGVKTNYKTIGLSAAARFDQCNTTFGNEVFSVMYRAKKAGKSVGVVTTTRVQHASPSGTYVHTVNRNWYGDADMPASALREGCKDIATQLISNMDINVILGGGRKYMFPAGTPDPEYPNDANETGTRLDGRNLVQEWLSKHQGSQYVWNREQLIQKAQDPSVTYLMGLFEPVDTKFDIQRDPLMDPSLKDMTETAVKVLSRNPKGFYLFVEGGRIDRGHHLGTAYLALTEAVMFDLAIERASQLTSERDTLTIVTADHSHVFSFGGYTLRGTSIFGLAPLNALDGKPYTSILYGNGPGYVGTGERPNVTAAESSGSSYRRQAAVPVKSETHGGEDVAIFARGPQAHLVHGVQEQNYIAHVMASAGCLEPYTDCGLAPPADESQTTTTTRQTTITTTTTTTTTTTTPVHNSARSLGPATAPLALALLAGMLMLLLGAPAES

[9] = biological target: T3, Intestinal-type alkaline phosphatase; test: inhibition of human intestinal alkaline phosphatase – biochemical, luminescent, uHTS hits, set 2, dose response (AID 488793); type: functional
[10] = biological target: T4, Alkaline phosphatase, tissue-nonspecific isozyme; test: inhibition of tissue-nonspecific alkaline phosphatase – biochemical, dose response (AID 488882); type: functional
[11] = biological target: T3, Intestinal-type alkaline phosphatase; test: Dose Response confirmation of uHTS hits from a small molecule inhibitors of human intestinal alkaline phosphatase via a luminescent assay. [Related pubchem assays (depositor defined):AID2544, AID2574]; type: functional
[12] = Counterscreen for AddAB inhibitors: absorbance-based bacterial cell-based high throughput dose response assay for inhibitors of bacterial viability. [Related pubchem assays (depositor defined):AID435030, AID449728, AID449731, AID488942, AID488955, AID488956]; type: functional
Exodeoxyribonuclease V = Exodeoxyribonuclease V (Escherichia coli (strain K12), UniProt P04993+P07648+P08394); test: RecBCD inhibition via phage-restricted bacterial growth – absorbance, V66 E. coli, mutant T4 phage, counter-screen for AddAB inhibitor project, dose response (AID 492957); type: functional, cell-based, Escherichia coli str. K-12 substr. MG1655
Exodeoxyribonuclease V, sequence (P04993 whole entry): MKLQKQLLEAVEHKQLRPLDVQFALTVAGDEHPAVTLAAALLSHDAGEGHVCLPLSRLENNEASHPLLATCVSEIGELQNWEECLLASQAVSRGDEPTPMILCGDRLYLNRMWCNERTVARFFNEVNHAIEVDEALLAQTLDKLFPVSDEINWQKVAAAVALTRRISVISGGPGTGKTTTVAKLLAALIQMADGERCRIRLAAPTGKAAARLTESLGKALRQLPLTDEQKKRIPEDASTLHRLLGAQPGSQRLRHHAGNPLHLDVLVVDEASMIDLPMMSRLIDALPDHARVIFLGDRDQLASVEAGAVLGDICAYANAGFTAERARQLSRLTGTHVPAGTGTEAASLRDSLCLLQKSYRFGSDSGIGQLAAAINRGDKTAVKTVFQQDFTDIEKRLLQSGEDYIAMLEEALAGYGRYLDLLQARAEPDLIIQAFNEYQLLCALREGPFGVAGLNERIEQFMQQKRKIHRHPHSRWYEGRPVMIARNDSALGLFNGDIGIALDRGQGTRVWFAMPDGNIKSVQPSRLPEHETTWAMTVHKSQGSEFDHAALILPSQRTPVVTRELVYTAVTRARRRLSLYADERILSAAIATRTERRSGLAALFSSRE
Exodeoxyribonuclease V, sequence (P07648 whole entry): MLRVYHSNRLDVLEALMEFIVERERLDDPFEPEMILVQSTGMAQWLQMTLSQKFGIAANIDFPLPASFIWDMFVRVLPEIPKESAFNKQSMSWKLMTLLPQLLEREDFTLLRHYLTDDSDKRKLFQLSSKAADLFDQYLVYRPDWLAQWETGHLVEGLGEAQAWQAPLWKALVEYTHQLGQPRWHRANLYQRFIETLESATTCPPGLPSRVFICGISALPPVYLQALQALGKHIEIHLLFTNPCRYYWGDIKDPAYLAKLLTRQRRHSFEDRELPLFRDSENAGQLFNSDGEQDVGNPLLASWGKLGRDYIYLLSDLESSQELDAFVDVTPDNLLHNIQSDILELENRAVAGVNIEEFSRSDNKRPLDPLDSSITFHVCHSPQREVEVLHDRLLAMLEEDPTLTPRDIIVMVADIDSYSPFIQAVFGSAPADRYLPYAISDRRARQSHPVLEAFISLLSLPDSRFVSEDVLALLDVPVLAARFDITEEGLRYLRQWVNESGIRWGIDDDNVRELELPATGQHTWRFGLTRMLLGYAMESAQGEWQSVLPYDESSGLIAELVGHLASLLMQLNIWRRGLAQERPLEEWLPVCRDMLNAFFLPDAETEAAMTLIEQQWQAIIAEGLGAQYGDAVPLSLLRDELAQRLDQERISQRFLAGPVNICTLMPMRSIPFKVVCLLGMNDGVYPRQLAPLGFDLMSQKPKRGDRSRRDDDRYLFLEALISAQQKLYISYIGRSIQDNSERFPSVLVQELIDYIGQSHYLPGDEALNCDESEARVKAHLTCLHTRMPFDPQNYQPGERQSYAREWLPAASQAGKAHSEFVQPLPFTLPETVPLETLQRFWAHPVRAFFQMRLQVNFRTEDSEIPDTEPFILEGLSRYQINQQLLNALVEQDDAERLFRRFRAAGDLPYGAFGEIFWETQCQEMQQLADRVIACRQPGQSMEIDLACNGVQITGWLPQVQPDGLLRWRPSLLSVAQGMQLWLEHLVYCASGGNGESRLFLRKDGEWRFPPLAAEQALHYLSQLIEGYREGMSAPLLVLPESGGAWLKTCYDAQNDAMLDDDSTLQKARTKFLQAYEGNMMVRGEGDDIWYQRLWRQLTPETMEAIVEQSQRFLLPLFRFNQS
Exodeoxyribonuclease V, sequence (P08394 whole entry): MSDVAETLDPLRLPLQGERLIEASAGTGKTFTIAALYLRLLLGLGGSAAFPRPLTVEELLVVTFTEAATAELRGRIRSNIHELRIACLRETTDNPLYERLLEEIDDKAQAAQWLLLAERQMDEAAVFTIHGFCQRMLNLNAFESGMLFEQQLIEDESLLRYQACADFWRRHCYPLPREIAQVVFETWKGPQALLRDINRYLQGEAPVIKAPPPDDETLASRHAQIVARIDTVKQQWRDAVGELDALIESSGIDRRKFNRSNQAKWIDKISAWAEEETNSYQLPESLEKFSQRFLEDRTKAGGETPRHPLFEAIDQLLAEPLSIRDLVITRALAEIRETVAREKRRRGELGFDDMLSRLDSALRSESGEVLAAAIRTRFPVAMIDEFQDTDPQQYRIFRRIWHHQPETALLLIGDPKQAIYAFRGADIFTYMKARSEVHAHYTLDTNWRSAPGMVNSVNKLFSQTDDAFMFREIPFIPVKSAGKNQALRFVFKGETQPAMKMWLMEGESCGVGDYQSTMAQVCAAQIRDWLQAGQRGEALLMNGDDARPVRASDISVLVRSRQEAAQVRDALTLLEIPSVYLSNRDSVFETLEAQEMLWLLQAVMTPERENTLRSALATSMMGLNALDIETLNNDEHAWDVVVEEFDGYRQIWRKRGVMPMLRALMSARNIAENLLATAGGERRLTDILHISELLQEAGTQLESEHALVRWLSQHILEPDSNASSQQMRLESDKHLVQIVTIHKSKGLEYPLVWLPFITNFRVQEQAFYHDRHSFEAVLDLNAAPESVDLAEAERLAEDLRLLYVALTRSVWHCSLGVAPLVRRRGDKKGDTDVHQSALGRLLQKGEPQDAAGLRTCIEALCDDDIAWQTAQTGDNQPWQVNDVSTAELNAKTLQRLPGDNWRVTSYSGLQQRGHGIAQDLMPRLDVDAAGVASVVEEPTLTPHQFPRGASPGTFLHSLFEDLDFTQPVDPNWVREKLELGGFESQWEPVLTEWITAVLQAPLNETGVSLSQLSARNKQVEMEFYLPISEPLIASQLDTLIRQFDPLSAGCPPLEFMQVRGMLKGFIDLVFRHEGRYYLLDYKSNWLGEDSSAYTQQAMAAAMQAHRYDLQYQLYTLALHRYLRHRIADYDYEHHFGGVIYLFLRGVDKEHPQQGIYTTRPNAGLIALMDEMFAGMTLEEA

[13] = Luminescence Cell-Based Dose Response HTS to Identify Inhibitors of 5'UTR Stem-Loop Driven Prion Protein mRNA Translation in H4 Neuroglioblastoma Cells. [Related pubchem assays: 1827 (Project Summary), 1813 (Primary HTS)]; type: functional
[14] = luciferase reporter signal suppression in cells – H4 neuroglioma cells, luminescence, dose response (AID 1990); type: functional, cell-based
[15] = biological target: T5, Zinc finger protein mex-5 (Caenorhabditis elegans, UniProt Q9XUB2); test: potency of MEX-5 RNA-binding blockers – biochemical, C. elegans, fluorescence polarization, dose response (AID 1960)
T5 sequence (Q9XUB2 whole entry): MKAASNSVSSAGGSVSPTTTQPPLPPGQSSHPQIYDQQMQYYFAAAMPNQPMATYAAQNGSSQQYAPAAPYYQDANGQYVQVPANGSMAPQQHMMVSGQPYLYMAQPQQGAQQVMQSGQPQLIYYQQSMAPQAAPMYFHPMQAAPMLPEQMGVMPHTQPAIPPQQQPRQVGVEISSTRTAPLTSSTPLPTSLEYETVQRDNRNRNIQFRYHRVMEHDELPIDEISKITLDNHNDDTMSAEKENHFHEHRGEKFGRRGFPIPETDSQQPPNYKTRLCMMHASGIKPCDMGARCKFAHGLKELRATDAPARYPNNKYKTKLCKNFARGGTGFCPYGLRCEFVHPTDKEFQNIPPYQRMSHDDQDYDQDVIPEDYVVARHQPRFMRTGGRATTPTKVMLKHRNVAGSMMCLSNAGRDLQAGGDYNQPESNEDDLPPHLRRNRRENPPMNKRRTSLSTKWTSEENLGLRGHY

[16] = alpha-synuclein stem-loop luciferase translation blockers – H4 neuroglioma cells, luminescence, confirmation (AID 1988); type: functional, cell-based
[17] = biological target: T6, Heat shock factor protein 1 (Mus musculus, UniProt P38532); test: decrease of HSF1-responsive luciferase luminescence – cell-based, NIH3T3, dose retest, confirmation (AID 2382); type: functional;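 note: NIH3T3 fibroblasts with HSF1-driven luciferase reporter stressed by proteasome inhibitor MG132; luminescence from HSF1-driven luciferase expression after 8 hours of MG132 stress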
T6 sequence (P38532 whole entry): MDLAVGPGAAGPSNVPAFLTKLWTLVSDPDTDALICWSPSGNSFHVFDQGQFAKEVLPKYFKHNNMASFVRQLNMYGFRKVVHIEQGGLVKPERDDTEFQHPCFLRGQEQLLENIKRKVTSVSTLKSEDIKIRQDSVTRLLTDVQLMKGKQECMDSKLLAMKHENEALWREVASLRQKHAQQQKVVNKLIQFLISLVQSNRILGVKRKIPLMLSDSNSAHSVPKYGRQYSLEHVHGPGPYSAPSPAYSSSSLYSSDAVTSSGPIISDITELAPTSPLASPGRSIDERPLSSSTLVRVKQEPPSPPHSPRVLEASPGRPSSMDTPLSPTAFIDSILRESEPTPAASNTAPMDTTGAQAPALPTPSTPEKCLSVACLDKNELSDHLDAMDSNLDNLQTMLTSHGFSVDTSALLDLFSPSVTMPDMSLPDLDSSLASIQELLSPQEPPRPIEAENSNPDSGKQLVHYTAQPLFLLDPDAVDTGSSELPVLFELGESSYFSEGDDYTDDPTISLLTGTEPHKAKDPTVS

INS1 = test: INS-1E survival protection against cytokine death – cell-based, luminescence, retest, dose response (AID 449756); type: functional; conditions: Rattus norvegicus;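 note: cell death triggered by IL-1 beta plus TNF-alpha plus IFN-gamma mixture; protective hits raise ATP signal compared with cytokine alone wells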
[18] = biological target: T7, RNA-binding protein pos-1 (Caenorhabditis elegans, UniProt G5EF15); test: disruptors of C. elegans POS-1 RNA interaction – biochemical, fluorescence polarization, dose response (AID 1964);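 note: purified POS-1 fused to maltose binding protein made in E. coli; potency of compounds blocking POS-1 binding to fluorescent RNA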
T7 sequence (G5EF15 whole entry): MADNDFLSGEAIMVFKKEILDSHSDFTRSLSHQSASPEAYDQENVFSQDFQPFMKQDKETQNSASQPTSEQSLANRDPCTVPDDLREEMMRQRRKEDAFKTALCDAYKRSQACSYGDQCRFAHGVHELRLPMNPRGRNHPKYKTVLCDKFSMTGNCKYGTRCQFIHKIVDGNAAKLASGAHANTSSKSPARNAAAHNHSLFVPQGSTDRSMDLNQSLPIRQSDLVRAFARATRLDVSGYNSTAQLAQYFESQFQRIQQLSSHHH

What does the source list for `COC(=O)Cn1nc(-c2ccccc2)c2ccccc21`?
EC50 [1]: > 180 µM (inactive); EC50 [2]: > 150 µM (inactive); EC50 [3]: 33.9 µM (active); EC50 [4]: 0.81 µM (active); AC50 (Candida albicans): 1.15 µM (active)

What does the source list for `Clc1ccc(-c2nnc(CSc3nnc(-c4cccs4)n3Cc3ccccc3)o2)cc1`?
IC50 (Phospholipase A2): 35.1 µM (inactive); IC50 (Cysteine protease ATG4B): 37.3 µM (inactive); IC50 (Beta-galactosidase): > 80 µM (inactive)

What does the source list for `COc1ccc(C2=NN(C3=NN=C(N)Cc4ncnn43)C(O)(C(F)(F)F)C2)cc1` (configuration not stated)?
EC50 [5]: 13.3 µM (active); EC50 [6]: 7.5 µM (active); EC50 [7]: 14.1 µM (active); IC50 [8]: 41.2 µM (active)

With `CCOc1cc(/C=C2/C(=O)ON=C2C)cc(Br)c1O` as the molecule, how does the IC50 [9] read?
The IC50 was 35.8 µM (active).

What about the IC50 [8] of the same molecule?
The IC50 was 33.1 µM (active).

What about the IC50 [10] of the same molecule?
The IC50 was 38.1 µM (active).

And the IC50 [11]?
Its IC50 is 19.3 µM (inactive).

Which results are given for `CCCNC(=O)c1ccc2c(O)c(O)c(-c3cccc(Br)c3)nc2c1`?
IC50 [12]: > 119 µM (inactive); IC50 (Exodeoxyribonuclease V): > 119 µM (inactive); EC50 [13]: 4.83 µM (active); EC50 [14]: 3.04 µM (active); EC50 [2]: 15.6 µM (active); EC50 [4]: 2.09 µM (active); EC50 [15]: 2.73 µM (active); EC50 [16]: 3.4 µM (active); EC50 [17]: > 195 µM (not active); AC50 (INS1): 5.4 µM (active); EC50 [18]: 1.6 µM (active)
